Molecular target: KRAS G12C (Homo sapiens, UniProt P01116, G12C)
Test: SOS1-catalyzed KRAS coupled nucleotide exchange assay (Alpha technology)
Format: biochemical
Parameters: His; key: A: KRAS G12C bound and modulated
Settings: inhibition of SOS1 mediated KRAS nucleotide exchange
Outline: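 Alpha readout of c-RAF RBD binding to GTP-bound KRAS, normalized to DMSO. Method I: 20 nM GDP-KRAS G12C/C118A with compound 5 min, then 1.25 mM GTP + 500 nM SOS-1 30 min, pH 7.4 HEPES/MgCl2 buffer, 50 nM RBD. Method II: 50 nM GDP-KRAS G12C with compound 2 h, 1 mM GTP + 500 nM SOS-1 30 min, 2.5 nM GST-RBD; RT throughout.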

Row | SMILES | KRAS-SOS1 Nucleotide Exchange
1 | Cc1ccnc(C(C)C)c1-n1c(=O)nc(NC2CN(S(=O)(=O)c3c(F)c(F)c(F)c(F)c3C(F)(F)F)C2)c2cc(F)c(-c3c(O)cccc3F)nc21 [Compound 15A, 6-fluoro-7-(2-fluoro-6-hydroxyphenyl)-1-(2-isopropyl-4-methylpyridin-3-yl)-4-((1-((2,3,4,5-tetrafluoro-6-(trifluoromethyl)phenyl)sulfonyl)azetidin-3-yl)amino)pyrido[2,3-d]pyrimidin-2(1H)-one] | A
2 | Cc1ccnc(C(C)C)c1-n1c(=O)nc(NC2CN(S(=O)(=O)c3c(F)c(F)c(F)c(F)c3C(F)(F)F)C2)c2cc(F)c(Cl)nc21 [Compound 14A, 7-chloro-6-fluoro-1-(2-isopropyl-4-methylpyridin-3-yl)-4-((1-((2,3,4,5-tetrafluoro-6-(trifluoromethyl)phenyl)sulfonyl)azetidin-3-yl)amino)pyrido[2,3-d]pyrimidin-2(1H)-one] | A
